Experimental data reported in PubChem BioAssay (NCI).
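Values below derive from 48-hour exposures of cells grown in 96-well plates, with endpoints linearly interpolated between the two concentrations bracketing the appropriate inhibition level. At the GI50, growth is halved. TGI marks complete inhibition of growth.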

What was measured:
Experiment in all cases: NCI tumour cell line growth inhibition, 48 h
OVCAR-8 ovarian = system: OVCAR-8 ovarian
RPMI-8226 leukemia = system: RPMI-8226 leukemia
HOP-62 NSCLC = system: HOP-62 NSCLC
CAKI-1 renal = system: CAKI-1 renal
SK-MEL-28 melanoma = system: SK-MEL-28 melanoma
CCRF-CEM leukemia = system: CCRF-CEM leukemia
UACC-257 melanoma = system: UACC-257 melanoma
HS 578T breast = system: HS 578T breast

Structure (SMILES)	GI50 (OVCAR-8 ovarian)	TGI (OVCAR-8 ovarian)	GI50 (RPMI-8226 leukemia)	TGI (RPMI-8226 leukemia)	GI50 (HOP-62 NSCLC)	TGI (HOP-62 NSCLC)	GI50 (CAKI-1 renal)	TGI (CAKI-1 renal)	GI50 (SK-MEL-28 melanoma)	TGI (SK-MEL-28 melanoma)	GI50 (CCRF-CEM leukemia)	TGI (CCRF-CEM leukemia)	GI50 (UACC-257 melanoma)	TGI (UACC-257 melanoma)	GI50 (HS 578T breast)	TGI (HS 578T breast)
c1cc(N2CCN(c3ccc(C4=NCCCN4)cc3)CC2)ccc1C1=NCCCN1	> 95.7 µM	> 100 µM	23.8 µM	> 100 µM	> 100 µM	> 100 µM	> 100 µM	> 100 µM	> 100 µM	> 100 µM	> 61.4 µM	> 100 µM	99 µM	> 100 µM	> 58.7 µM	> 100 µM
Cc1[nH]c(-c2cc(N)ccc2Cl)c2c1C(=O)CCCC2	3.26 µM	> 100 µM	3.63 µM	44.2 µM	2.29 µM	> 100 µM	0.702 µM	17.9 µM	6.5 µM	> 100 µM	1.06 µM	> 100 µM	3.49 µM	> 100 µM	2.11 µM	17.8 µM
C[n+]1c2ccccc2nc2c(N)cc(N)cc21	–	–	4.54 µM	33.9 µM	3.48 µM	38.1 µM	0.519 µM	19 µM	10.3 µM	24.1 µM	4.63 µM	48.3 µM	–	–	3.63 µM	20.6 µM
CN=C1OC2(c3ccccc3)C3=C(OC(=NC)N2C)C(=O)OC3(c2ccccc2)N1C (stereo unspecified)	–	> 100 µM	–	–	–	> 100 µM	–	> 100 µM	–	> 100 µM	–	> 100 µM	–	> 100 µM	–	> 100 µM
CC(CO)(Nc1ccc([N+](=O)[O-])cc1[N+](=O)[O-])C(=O)O (stereo unspecified)	–	> 100 µM	–	> 100 µM	–	> 100 µM	–	89.8 µM	–	43.5 µM	–	–	–	69.2 µM	–	46.3 µM
COc1cc2ncc3c(nc4sccn43)c2cc1OC	38.1 µM	> 100 µM	26.4 µM	89 µM	18.7 µM	51.4 µM	2.38 µM	21.2 µM	28.9 µM	95 µM	46.4 µM	> 100 µM	43.8 µM	> 100 µM	22.1 µM	> 100 µM
CC(C)C[C@H](NC(=O)CCn1ccc2ccccc2c1=O)B(O)O	15.3 µM	> 100 µM	1.06 µM	7.07 µM	4.51 µM	22.1 µM	2.93 µM	27 µM	3.27 µM	> 100 µM	2.02 µM	25.4 µM	3.68 µM	33.8 µM	3.63 µM	48.7 µM
COc1cc(/C=C/c2ccc3c(Br)cc(Br)c(O)c3n2)ccc1O	2.14 µM	15.5 µM	1.21 µM	8.07 µM	1.51 µM	8.07 µM	0.553 µM	5.42 µM	3.16 µM	12.9 µM	0.359 µM	3.03 µM	7.61 µM	22 µM	2.01 µM	14.6 µM
CC1C=CC(OC(=O)C(C)(O)CCC(O)(C(=O)OC2CC(O)C(C(C)C)CC2(C)O)C(C)C)(C(C)C)CC1 (stereo unspecified)	0.835 µM	2.69 µM	0.161 µM	0.711 µM	0.641 µM	1.66 µM	0.594 µM	1.2 µM	2.1 µM	8.27 µM	0.244 µM	0.901 µM	0.911 µM	2.56 µM	0.792 µM	4.84 µM
N#CCCNc1nonc1-c1nc2ccccc2n1CC(=O)c1ccc(NC(=O)[C@@H](N)CCCCN)cc1	0.0554 µM	> 100 µM	0.0434 µM	> 100 µM	0.0562 µM	> 100 µM	0.061 µM	> 100 µM	–	–	0.0368 µM	> 100 µM	> 100 µM	> 100 µM	0.908 µM	> 100 µM
Cc1cc(C)c(C2CNCc3cc4c(cc32)CNCC4c2c(C)cc(C)cc2C)c(C)c1 (stereo unspecified)	2 µg/mL	4.18 µg/mL	2.25 µg/mL	6.92 µg/mL	8.62 µg/mL	22.3 µg/mL	4.22 µg/mL	13.6 µg/mL	1.83 µg/mL	3.47 µg/mL	1.86 µg/mL	5.07 µg/mL	1.83 µg/mL	4.27 µg/mL	3.43 µg/mL	13.5 µg/mL
CCC(=O)Nc1ccc(N2C(=O)/C(=C/c3ccc(OC)cc3)N=C2c2ccccc2)cc1	7.38 µM	> 50 µM	4.67 µM	> 50 µM	–	–	6.4 µM	21.7 µM	14.6 µM	> 50 µM	> 50 µM	> 50 µM	22.2 µM	> 50 µM	14.1 µM	> 50 µM
COc1cc(C(=O)c2cc(C)c3[nH]c4ccc(O)cc4c3c2C)cc(OC)c1OC	0.0317 µM	> 100 µM	0.0228 µM	> 100 µM	0.0297 µM	> 70.9 µM	< 0.01 µM	> 47.6 µM	3.66 µM	> 100 µM	0.0254 µM	> 100 µM	6.42 µM	> 100 µM	0.0141 µM	> 100 µM
O=C(O)c1ccccc1NC(=S)c1ccccc1	–	> 100 µM	–	75.8 µM	–	> 100 µM	–	> 100 µM	–	–	–	> 100 µM	–	> 100 µM	–	> 100 µM
N/C(=N\OC(=O)c1ccccc1)C(Cc1ccccc1)C(=O)NOC(=O)c1ccccc1 (stereo unspecified)	2.11 µM	6.53 µM	1.74 µM	4.95 µM	1.37 µM	2.83 µM	1.28 µM	2.97 µM	7.76 µM	22.6 µM	2.18 µM	6.07 µM	5.32 µM	18.5 µM	0.952 µM	3.27 µM
C[C@@H]1Cc2cc(O)ccc2[C@H]2CC[C@]3(C)/C(=C/COCCN(C)C)CC[C@H]3[C@H]12 (tested in a mixture with another compound)	0.18 µM	0.364 µM	0.239 µM	0.694 µM	0.285 µM	0.739 µM	0.213 µM	0.578 µM	0.456 µM	1.46 µM	0.159 µM	0.416 µM	0.495 µM	2.01 µM	0.0822 µM	0.436 µM
